According to patent publication US20240150345A1, “GCN2 MODULATING COMPOUNDS AND USES THEREOF” (HiberCell, Inc., priority 2021, published 2024):
pIC50: −log10 of the molar value.

Target: T1, GCN2 (Homo sapiens, UniProt Q9P2K8)
T1 construct: purchased Carma Biosciences (so in the source)
Experiment: TR-FRET biochemical assay for inhibition of GCN2 activity
Details: 2 nM GCN2, 100 nM GFP-eIF2α, 150 μM ATP, 1.5 hours at 25° C.
Method in brief: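 Compounds (11-point, 3-fold series) were incubated with GCN2 (2 nM final), GFP-eIF2α (100 nM final) and 150 μM ATP with 2 mM DTT for 1.5 h at 25 °C. A 1 nM Tb-anti-P-eIF2α solution was then added for 2 h at 25 °C. TR-FRET was read (ex 340 nm, em 495/520 nm) and fitted with a 4-parameter sigmoidal curve.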

T1 sequence (Q9P2K8 whole entry): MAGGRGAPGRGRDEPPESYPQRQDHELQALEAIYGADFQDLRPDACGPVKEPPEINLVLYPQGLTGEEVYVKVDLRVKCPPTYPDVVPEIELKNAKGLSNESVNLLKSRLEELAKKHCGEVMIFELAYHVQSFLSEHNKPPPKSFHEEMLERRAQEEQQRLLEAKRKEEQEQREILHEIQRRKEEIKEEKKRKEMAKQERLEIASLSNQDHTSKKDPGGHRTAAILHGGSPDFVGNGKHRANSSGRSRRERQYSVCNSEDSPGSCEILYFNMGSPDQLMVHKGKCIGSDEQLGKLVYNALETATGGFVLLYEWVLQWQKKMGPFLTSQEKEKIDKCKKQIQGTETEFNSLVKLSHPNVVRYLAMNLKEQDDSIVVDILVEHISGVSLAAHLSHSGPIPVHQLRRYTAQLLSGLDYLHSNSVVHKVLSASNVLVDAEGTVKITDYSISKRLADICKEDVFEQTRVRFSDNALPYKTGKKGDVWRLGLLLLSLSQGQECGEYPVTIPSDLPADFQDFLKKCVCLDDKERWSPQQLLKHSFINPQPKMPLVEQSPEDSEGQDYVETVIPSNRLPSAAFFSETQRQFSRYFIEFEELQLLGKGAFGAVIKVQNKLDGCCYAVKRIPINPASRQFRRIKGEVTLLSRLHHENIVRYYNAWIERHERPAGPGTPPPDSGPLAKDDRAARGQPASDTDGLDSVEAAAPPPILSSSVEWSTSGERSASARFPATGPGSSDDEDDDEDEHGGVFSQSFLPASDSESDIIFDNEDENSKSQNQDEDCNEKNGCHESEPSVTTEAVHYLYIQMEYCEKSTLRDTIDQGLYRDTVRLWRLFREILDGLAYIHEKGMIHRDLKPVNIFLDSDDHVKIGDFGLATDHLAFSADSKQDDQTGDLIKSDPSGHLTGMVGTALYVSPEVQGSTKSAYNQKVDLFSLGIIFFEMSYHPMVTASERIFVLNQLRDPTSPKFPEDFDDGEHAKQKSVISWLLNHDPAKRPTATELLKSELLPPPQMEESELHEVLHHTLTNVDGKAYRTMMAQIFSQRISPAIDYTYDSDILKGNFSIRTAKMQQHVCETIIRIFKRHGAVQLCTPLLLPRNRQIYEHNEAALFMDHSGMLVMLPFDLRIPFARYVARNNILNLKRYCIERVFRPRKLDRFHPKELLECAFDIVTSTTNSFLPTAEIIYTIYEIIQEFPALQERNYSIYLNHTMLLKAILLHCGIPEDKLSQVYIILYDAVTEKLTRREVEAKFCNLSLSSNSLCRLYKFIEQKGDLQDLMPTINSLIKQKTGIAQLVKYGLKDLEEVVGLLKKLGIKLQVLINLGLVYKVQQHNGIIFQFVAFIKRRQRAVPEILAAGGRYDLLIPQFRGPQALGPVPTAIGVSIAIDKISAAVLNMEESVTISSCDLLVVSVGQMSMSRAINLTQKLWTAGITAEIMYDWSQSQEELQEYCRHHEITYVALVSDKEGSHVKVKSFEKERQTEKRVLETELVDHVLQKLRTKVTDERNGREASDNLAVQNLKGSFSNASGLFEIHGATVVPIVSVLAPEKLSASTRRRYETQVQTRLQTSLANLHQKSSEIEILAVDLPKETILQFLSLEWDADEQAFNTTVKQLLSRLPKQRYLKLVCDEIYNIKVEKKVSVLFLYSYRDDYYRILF

Compound	pIC50
COc1ncc(F)cc1S(=O)(=O)Nc1ccc(F)c(COc2cnc3[nH]nc(CC(F)F)c3c2)c1F [Compound 75, N-[3-([[3-(2,2-difluoroethyl)-1H-pyrazolo[3,4-b]pyridin-5-yl]oxy]methyl)-2,4-difluorophenyl]-5-fluoro-2-methoxypyridine-3-sulfonamide]	> 7.30
COc1ncc(Cl)cc1S(=O)(=O)Nc1ccc(F)c(CCc2ccn3cncc3c2)c1F [Compound 19, 5-chloro-N-[2,4-difluoro-3-(2-[imidazo[1,5-a]pyridin-7-yl]ethyl)phenyl]-2-methoxypyridine-3-sulfonamide]	< 6.00
Cc1ncc(F)cc1S(=O)(=O)Nc1ccc(Cl)c(COc2cnc3[nH]nc(C)c3c2)c1F [Compound 77, N-(4-chloro-2-fluoro-3-(((3-methyl-1H-pyrazolo[3,4-b]pyridin-5-yl)oxy)methyl)phenyl)-5-fluoro-2-methylpyridine-3-sulfonamide]	> 7.30
COc1ncc(Cl)cc1S(=O)(=O)Nc1ccc(F)c(NCc2cnc3[nH]ncc3c2)c1F [Compound 6, 5-chloro-N-[2,4-difluoro-3-([1H-pyrazolo[3,4-b]pyridin-5-ylmethyl]amino)phenyl]-2-methoxypyridine-3-sulfonamide]	6.30 to 7.30
COc1ncc(F)cc1S(=O)(=O)Nc1ccc(F)c(NCc2cnc3[nH]nc(C)c3c2)c1F [Compound 57, N-[2,4-difluoro-3-[([3-methyl-1H-pyrazolo[3,4-b]pyridin-5-yl]methyl)amino]phenyl]-5-fluoro-2-methoxypyridine-3-sulfonamide]	6.30 to 7.30
COc1ncc(Cl)cc1S(=O)(=O)Nc1ccc(F)c(COc2cnc3[nH]ncc3c2C)c1F [Compound 22, 5-chloro-N-[2,4-difluoro-3-[([4-methyl-1H-pyrazolo[3,4-b]pyridin-5-yl]oxy)methyl]phenyl]-2-methoxypyridine-3-sulfonamide]	> 7.30
COc1ncc(F)cc1S(=O)(=O)Nc1ccc(F)c(CCc2cnc3[nH]ncc3c2)c1F [Compound 15, N-[2,4-difluoro-3-(2-[1H-pyrazolo[3,4-b]pyridin-5-yl]ethyl)phenyl]-5-fluoro-2-methoxypyridine-3-sulfonamide]	> 7.30
Cc1ncc(F)cc1S(=O)(=O)Nc1ccc(F)c(COc2cnc3[nH]ncc3c2)c1F [Compound 30, N-(3-(((1H-pyrazolo[3,4-b]pyridin-5-yl)oxy)methyl)-2,4-difluorophenyl)-5-fluoro-2-methylpyridine-3-sulfonamide]	> 7.30
COc1ncc(F)cc1S(=O)(=O)Nc1ccc(F)c(COc2cnc3[nH]nc(C4CC4)c3c2)c1F [Compound 70, N-(3-(((3-cyclopropyl-1H-pyrazolo[3,4-b]pyridin-5-yl)oxy)methyl)-2,4-difluorophenyl)-5-fluoro-2-methoxypyridine-3-sulfonamide]	> 7.30
COc1ncc(Cl)cc1S(=O)(=O)Nc1ccc(F)c(CNc2cnc3[nH]ncc3c2)c1F [Compound 3, 5-chloro-N-[2,4-difluoro-3-([1H-pyrazolo[3,4-b]pyridin-5-ylamino]methyl)phenyl]-2-methoxypyridine-3-sulfonamide]	6.30 to 7.30
COc1ncc(Cl)cc1S(=O)(=O)Nc1ccc(F)c(CCc2cnc3[nH]ncc3c2)c1F [Compound 7, 5-chloro-N-[2,4-difluoro-3-(2-[1H-pyrazolo[3,4-b]pyridin-5-yl]ethyl)phenyl]-2-methoxypyridine-3-sulfonamide]	> 7.30
COc1ncc(Cl)cc1S(=O)(=O)Nc1ccc(F)c(COc2cnc3[nH]ncc3c2)c1F [Compound 1, 5-chloro-N-[2,4-difluoro-3-([1H-pyrazolo[3,4-b]pyridin-5-yloxy]methyl)phenyl]-2-methoxypyridine-3-sulfonamide]	> 7.30
COc1ncc(F)cc1S(=O)(=O)Nc1ccc(F)c(COc2cnc3[nH]nc(C)c3c2C(C)C)c1F [Compound 88, N-[2,4-difluoro-3-[([4-isopropyl-3-methyl-1H-pyrazolo[3,4-b]pyridin-5-yl]oxy)methyl]phenyl]-5-fluoro-2-methoxypyridine-3-sulfonamide]	< 6.00
